Laboratory results published in patent EP4800015A1, “AZABICYCLO DERIVATIVE AND PREPARATION METHOD THEREFOR, AND USE” (Zhejiang Hisun Pharmaceutical Co., Ltd., priority 2023, dated 2025).

Experiments:
[1] = tested on: SW48 cells; assay: Inhibition of SW48 cell proliferation (CellTiter-Glo); assay type: cell-based; settings: Homo sapiens; SW48 cells (MSI-H), 120 hours
Experimental: (§1) The following method was used to determine the effect of the compounds of the present disclosure on SW48 cell proliferation. SW48 cells (MSI-H cells) were purchased from American ATCC cell bank and cultured in Leibovitz's L-15 medium (Gibco, catalog No. 11415064) containing 10% fetal bovine serum, 100 U penicillin, and 100 µg/mL streptomycin. Cell viability was determined by CellTiter-Glo® Luminescent Cell Viability Assay kit (Promega, catalog No. G7573).
(§2) The experiment was performed according to the steps of the kit manual, which is briefly described as follows: test compounds were first dissolved in DMSO to prepare 10 mM stock solutions, and then diluted with medium to prepare test samples, with final compound concentrations ranging from 10000 nM to 1.52 nM. Cells in logarithmic growth phase were seeded into 96-well cell culture plates at a density of 500 cells per well and cultured overnight at 37 °C in an air incubator, then test compounds were added and cultivation continued for 120 hours. After the cultivation was completed, 40 µL of CellTiter-Glo detection reagent was added to each well, shaken for 5 minutes, and then left to stand for 10 minutes. Luminescence values of each well were read on a microplate reader using Luminescence mode. The percentage inhibition at each concentration point was calculated by comparison with the control group (0.1% DMSO), and then IC50 values for the compounds for inhibition of cell proliferation were obtained using nonlinear regression analysis of compound concentration logarithm versus inhibition rate in GraphPad Prism 9 software, as shown in Table 2.
The IC50 value results of the compounds of the present disclosure are represented by A, wherein "A" indicates 1 nM < IC50 ≤ 100 nM. Table 2 IC50 data for inhibition of SW48 cell proliferation by the compounds of the present disclosure

[2] = molecular target: T1, recombinant human WRN (Homo sapiens, UniProt Q14191); assay: Inhibition of WRN enzyme activity (ATPase), ADP-Glo Kinase Assay; assay type: biochemical; settings: WRN protein 5 nM, Flap 0.1 nM, ATP 30 µM; read-out: IC50
T1 construct: purchased BPS 101264
Outline: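 Recombinant human WRN (5 nM) was preincubated with compound (1000–0.004 nM) for 15 min at room temperature. Flap26 5'-flap DNA (0.1 nM) and 30 µM ATP were then added for 10 min in Tris pH 7.5, MgCl2, NaCl, BSA, Pluronic buffer. ADP was detected by ADP-Glo luminescence, and IC50 was obtained by nonlinear regression versus a 0.1% DMSO control.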

[3] = tested on: RL95-2 cells; assay: Inhibition of RL95-2 cell proliferation (CellTiter-Glo); assay type: cell-based; settings: Homo sapiens; RL95-2 cells (MSI-H), 120 hours
Experimental: as §1, with “RL95-2” for “SW48”, “Cell Resource Center of Shanghai Institutes for Biological Sciences, Chinese Academy of Sciences,” for “American ATCC cell bank”, “DMEM/F12” for “Leibovitz's L-15”, “A4192001)” for “11415064)”
as §2, with “a 5% CO2” for “an air”, “incubator, and” for “incubator,”, “50” for “40”, “3.” for “2.”
The IC50 value results of the compounds of the present disclosure are represented by A, wherein "A" indicates 1 nM < IC50 ≤ 100 nM. Table 3 IC50 data for inhibition of RL95-2 cell proliferation by the compounds of the present disclosure

T1 sequence (Q14191 whole entry): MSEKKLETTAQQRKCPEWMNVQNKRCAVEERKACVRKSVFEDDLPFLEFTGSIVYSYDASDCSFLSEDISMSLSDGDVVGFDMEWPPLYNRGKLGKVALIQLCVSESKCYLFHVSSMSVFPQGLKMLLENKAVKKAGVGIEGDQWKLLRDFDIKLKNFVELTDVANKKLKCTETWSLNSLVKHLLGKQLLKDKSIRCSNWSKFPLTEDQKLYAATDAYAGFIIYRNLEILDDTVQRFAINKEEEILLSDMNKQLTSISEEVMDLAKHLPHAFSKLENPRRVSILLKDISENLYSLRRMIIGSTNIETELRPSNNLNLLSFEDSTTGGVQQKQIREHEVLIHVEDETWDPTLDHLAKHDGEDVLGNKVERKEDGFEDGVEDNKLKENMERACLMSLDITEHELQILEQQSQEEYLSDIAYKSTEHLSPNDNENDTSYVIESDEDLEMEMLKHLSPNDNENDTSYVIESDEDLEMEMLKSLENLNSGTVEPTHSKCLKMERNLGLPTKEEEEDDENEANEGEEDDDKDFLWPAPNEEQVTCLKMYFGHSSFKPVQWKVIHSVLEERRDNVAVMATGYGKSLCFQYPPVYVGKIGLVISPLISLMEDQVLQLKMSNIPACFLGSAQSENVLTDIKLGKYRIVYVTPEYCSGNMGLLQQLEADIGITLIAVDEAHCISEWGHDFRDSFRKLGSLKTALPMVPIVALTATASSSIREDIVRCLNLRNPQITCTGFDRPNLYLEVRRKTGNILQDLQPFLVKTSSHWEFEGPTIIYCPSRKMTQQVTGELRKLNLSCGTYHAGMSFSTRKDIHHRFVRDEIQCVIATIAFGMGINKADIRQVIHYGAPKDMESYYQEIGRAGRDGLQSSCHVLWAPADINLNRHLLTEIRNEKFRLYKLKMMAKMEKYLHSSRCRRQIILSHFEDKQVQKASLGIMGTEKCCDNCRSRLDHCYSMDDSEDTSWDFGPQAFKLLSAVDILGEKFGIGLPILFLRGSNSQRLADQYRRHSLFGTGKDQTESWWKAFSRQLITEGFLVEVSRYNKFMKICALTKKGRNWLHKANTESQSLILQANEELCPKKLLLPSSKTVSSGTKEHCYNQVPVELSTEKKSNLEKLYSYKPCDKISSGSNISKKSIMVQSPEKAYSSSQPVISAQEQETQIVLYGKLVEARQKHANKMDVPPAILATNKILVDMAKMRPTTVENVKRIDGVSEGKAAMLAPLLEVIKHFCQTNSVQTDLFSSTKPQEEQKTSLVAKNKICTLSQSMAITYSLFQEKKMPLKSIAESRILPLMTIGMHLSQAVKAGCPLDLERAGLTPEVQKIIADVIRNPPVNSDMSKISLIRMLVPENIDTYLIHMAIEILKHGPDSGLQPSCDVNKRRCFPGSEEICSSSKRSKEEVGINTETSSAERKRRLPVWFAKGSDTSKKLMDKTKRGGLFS

Row | IC50 [1] | IC50 [2] | SMILES | IC50 [3]
1 | 1 to 100 nM | 1 to 100 nM | Cc1ncnc(C(=O)N2CCN(c3c(C4CCC4)n(CC(=O)Nc4ccc(C(F)(F)F)cc4Cl)c4nc(-c5ccc6c(c5)CCO6)nn4c3=O)CC2)c1O [Example 155, N-(2-chloro-4-(trifluoromethyl)phenyl)-2-(5-cyclobutyl-2-(2,3-dihydrobenzofuran-5-yl)-6-(4-(5-hydroxy-6-methylpyrimidine-4-carbonyl)piperazin-1-yl)-7-oxo-[1,2,4]triazolo[1,5-a]pyrimidin-4(7H)-yl)acetamide] | 
2 |  | 1 to 100 nM | Cc1ncnc(C(=O)N2CCN(c3c(C4CC4)n(CC(=O)Nc4ccc(C(F)(F)F)cc4Cl)c4nc(-c5ccc6c(c5)CCO6)nn4c3=O)CC2)c1O [Example 152, N-(2-chloro-4-(trifluoromethyl)phenyl)-2-(5-cyclopropyl-2-(2,3-dihydrobenzofuran-5-yl)-6-(4-(5-hydroxy-6-methylpyrimidine-4-carbonyl)piperazin-1-yl)-7-oxo-[1,2,4]triazolo[1,5-a]pyrimidin-4 (7H)-yl)acetamide] | 1 to 100 nM

Continued, molecule first:

Row | SMILES | IC50 [1] | IC50 [2] | IC50 [3]
3 | [2H]c1sc2ccc(-c3nc4n(CC(=O)Nc5ccc(C(F)(F)F)cc5Cl)c(CC)c(N5CCN(C(=O)c6ncnc(C)c6O)CC5)c(=O)n4n3)cc2c1[2H] [Example 170, 2-(2-(benzo[b]thiophen-5-yl-2,3-d2)-5-ethyl-6-(4-(5-hydroxy-6-methylpyrimidine-4-carbonyl)piperazin-1-yl)-7-oxo-[1,2,4]triazolo9[1,5-a]pyrimidin-4(7H)-yl)-N-(2-chloro-4-(trifluoromethyl)phenyl)acetamide] | 1 to 100 nM | 1 to 100 nM | 
4 | CCc1c(N2CCN(C(=O)c3ncnc(C)c3O)CC2)c(=O)n2nc(-c3cc4ccccc4o3)nc2n1CC(=O)Nc1ccc(S(F)(F)(F)(F)F)cc1 [Example 96, 2-(2-(benzofuran-2-yl)-5-ethyl-6-(4-(5-hydroxy-6-methylpyrimidine-4-carbonyl)piperazin-1-yl)-7-oxo-[1,2,4]triazolo[1,5-a]pyrimidin-4(7H)-yl)-N-(4-(pentafluoro-λ^6-sulfaneyl)phenyl)acetamide] | 1 to 100 nM | 1 to 100 nM | 
5 | CCc1c(N2CCN(C(=O)c3ncnc(C)c3O)CC2)c(=O)n2nc(C3=CCC4(CC3)COC4)nc2n1CC(=O)Nc1ccc(C(F)(F)F)cc1Cl [Example 65, N-(2-chloro-4-(trifluoromethyl)phenyl)-2-(5-ethyl-6-(4-(5-hydroxy-6-methylpyrimidine-4-carbonyl)piperazin-1-yl)-7-oxo-2-(2-oxaspiro[3.5]non-6-en-7-yl)-[1,2,4]triazolo[1,5-a]pyrimidin-4(7H)-yl)acetamide] |  | 1 to 100 nM | 1 to 100 nM
6 | CCc1c(N2CCN(C(=O)c3ncnc(C)c3O)CC2)c(=O)n2nc(C3=CCCCCC3)nc2n1CC(=O)Nc1ccc(S(F)(F)(F)(F)F)cc1Cl [Example 70, N-(2-chloro-4-(pentafluoro-λ^6-sulfaneyl)phenyl)-2-(2-(cyclohept-1-en-1-yl)-5-ethyl-6-(4-(5-hydroxy-6-methylpyrimidine-4-carbonyl)piperazin-1-yl)-7-oxo-[1,2,4]triazolo[1,5-a]pyrimidin-4(7H) -yl)acetamide] |  | 1 to 100 nM | 1 to 100 nM
7 | CCc1c(N2CCN(C(=O)c3ncnc(C)c3O)CC2)c(=O)n2nc(C3=CCCCOC3)nc2n1CC(=O)Nc1ccc(S(F)(F)(F)(F)F)cc1 [Example 63, 2-(5-ethyl-6-(4-(5-hydroxy-6-methylpyrimidine-4-carbonyl)piperazin-1-yl)-7-oxo-2-(2,5,6,7-tetra hydrooxepin-3-yl)-[1,2,4]triazolo[1,5-a]pyrimidin-4(7H)-yl)-N-(4-(pentafluoro-λ^6-sulfaneyl)phenyl)acetamide] |  | 1 to 100 nM | 1 to 100 nM
